Data published in publication PMC8318231, “Rate-of-Kill (RoK) assays to triage large compound sets for Chagas disease drug discovery: Application to GSK Chagas Box” (PLoS Neglected Tropical Diseases, 2021).
Like-named read-outs stand apart in the source and are kept apart here.

Key:
[1] = test system: T. cruzi Tulahuen trypomastigotes; assay: T. cruzi trypomastigote assay (Cell Titer-Glo viability, ATP luminescence); type: cell-based, Trypanosoma cruzi; settings: for Trypomastigotes pIC50 48 hours: 48 hours incubation; for Trypomastigotes pIC50 48 hours / Trypomastigotes pIC50 72 hours: pIC50 = -log10 IC50 in molar units; for Trypomastigotes pIC50 72 hours: 72 hours incubation; for IC50: Trypanosoma cruzi, TULAHUEN
Outline: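 Compounds were tested in dose response or once at a final 5 μM against 5 × 10^4 trypomastigotes per well (DMEM, 2% FBS), collected on days 5–8 from LLC-MK2 infected cultures. ATP luminescence via CellTiter-Glo reports live parasites; DMSO defines 0% and cell-free wells 100% effect.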

TcCYP51 = settings: cited from earlier work; for CYP51 pIC50: formerly reported
[2] = test system: H9c2 (rat cardiomyocytes); assay: RoK assay, number of host cells nuclei (drug-related cytotoxicity, H9c2 output, Cmin_Tox); settings: H9c2 host cells
Outline: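 Host-cell toxicity is read as DRAQ5-stained nuclei counts from automated confocal imaging of T. cruzi-infected H9c2 cells, tracked across time at each concentration. Cmin_Tox denotes the lowest compound concentration dropping host cell number under 50% of initial cell density.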

SMILES	Trypomastigotes pIC50 48 hours [1]	Trypomastigotes pIC50 72 hours [1]	CYP51 pIC50 (TcCYP51)	Cmin_Tox [2] [µM]	activity in trypomastigotes assay (in words) ([1]; 48 and 72 hours)	IC50 ([1]; 48 h, read-out: Trypomastigotes pIC50 48 hours (converted)) [µM]	IC50 ([1]; 72 h, read-out: Trypomastigotes pIC50 72 hours (converted)) [µM]	IC50 ([1]; 72 hours, plotted values, censored values given without sign, read-out: 72 pIC50 (trypomastigotes, raw data of Fig 1D) (converted)) [µM]	IC50 ([1]; trypomastigote assay, 48 h, figure 1A, read-out: 48 pIC50 (converted)) [µM]	IC50 ([1]; trypomastigote assay, 72 h, figure 1A, read-out: 72 pIC50 (converted)) [µM]	pIC50 versus trypomastigotes ([1]; invariable at the two incubation times tested)	CYP51 mean (TcCYP51; TcCYP51 enzyme inhibition, mean, figure 1B, ref original boxes paper)	72 pIC50 (trypomastigotes, raw data of Fig 1D) ([1]; 72 hours, plotted values, censored values given without sign)	48 pIC50 ([1]; trypomastigote assay, 48 h, figure 1A)	72 pIC50 ([1]; trypomastigote assay, 72 h, figure 1A)	72 pIC50 ([1]; trypomastigote assay, 72 h, figure 1B)
O=C(CN(c1cccc(C(F)(F)F)c1)S(=O)(=O)c1ccc(Cl)cc1)NCc1ccc(F)c(F)c1 [TCMDC-143548]	5	4.9	6.8	>50	–	–	–	–	–	–	–	–	–	–	–	–
Cc1cc(N(C)C)nc(Nc2ccccc2C)n1 [TCMDC-143109]	5.7	5.6	< 4	>50	–	–	–	–	–	–	–	–	–	–	–	–
CC1CS(=O)(=O)CCN1/N=C/c1ccc([N+](=O)[O-])o1 (stereo not drawn) [Nifurtimox, nifurtimox, reference compound]	–	–	< 4	>50	active	1.26	1.26	1.26	1.26	1.26	5.9	4.3	–	–	–	–
O=C(CSc1ccc(F)cc1)N[C@@H](Cc1cnc[nH]1)C(=O)NCCc1ccccc1.O=C(O)C(F)(F)F [TCMDC-143317]	< 4.3	< 4.3	7.1	>50	–	–	–	–	–	–	–	–	< 4.3	< 4.3	< 4.3	< 4.3
OCCCNc1nc(Nc2ccncc2)nc2ccccc12 [TCMDC-143476]	5.3	5.6	< 4	>50	–	–	–	–	–	–	–	–	–	–	–	–
